Measured values: patent US20090093499A1, “Pharmaceutical composition” (LEK PHARMACEUTICALS D.D., priority 2005, published 2009)

Experiment: Stress stability of the bulk agent and its mixtures with excipients (degradation products by HPLC)
Type: physicochemical
Experimental: The bulk agent is subjected to stress conditions, such as elevated temperature (40° C. and above), elevated humidity (75% or higher relative humidity, open dish conditions), oxygen atmosphere or solutions with different pH. An HPLC analysis, capable of resolving the agent and its degradation products is then employed, to quantify the amount (given as a mass percentage relative to the agent) of degradation products in the stressed samples. Good chromatographic resolution can be achieved on a C18 reversed phase column with acidic phosphate buffer and an increasing gradient of acetonitrile and tetrahydrofuran. Degradation products are quantified using UV detection at 242 nm. The reporting limit of the degradation products has been set at 0.05%. The % reported for HPLC analysis are in general area %.

[1] = aqueous solution of the agent, buffered to pH = 5 at room temperature (24 hours)
[2] = under oxygen at 60° C. for 14 days

(E)-7-[4-(4-fluorophenyl)-6-isopropyl-2-[methyl(methylsulfonyl)amino]pyrimidin-5-yl]-(3R, 5S)-3,5-dihydroxyhept-6-enoic acid hemicalcium salt [the agent]
amount of lactone (%) [1]: 2.30% | amount of oxidation product (%) [1]: <0.05% | amount of lactone (%) [2]: 0.17% | amount of oxidation product (%) [2]: 0.71%
